What all share (assay type): binding
Set-up in all cases: KINOMEscan: ABL1(F317L)-phosphorylated / KINOMEscan: ABL1(H396P)-nonphosphorylated / KINOMEscan: ABL1(H396P)-phosphorylated / KINOMEscan: ABL1(M351T)-phosphorylated / KINOMEscan: ABL1(T315I)-phosphorylated / KINOMEscan: ABL1-nonphosphorylated / KINOMEscan: ABL1-phosphorylated / KINOMEscan: ACVR2A / KINOMEscan: ACVR2B / KINOMEscan: ADCK3 / KINOMEscan: ADCK4 / KINOMEscan: AKT1 / KINOMEscan: AKT3 / KINOMEscan: ALK / KINOMEscan: ARK5 / KINOMEscan: AURKA / KINOMEscan: AURKC / KINOMEscan: BIKE / KINOMEscan: BMPR1A / KINOMEscan: BMPR1B / KINOMEscan: BMX / KINOMEscan: BRK / KINOMEscan: BRSK1 / KINOMEscan: BRSK2 / KINOMEscan: CAMK1 / KINOMEscan: CAMK1D / KINOMEscan: CAMK1G / KINOMEscan: CAMK2A / KINOMEscan: CAMK2B / KINOMEscan: AAK1 / KINOMEscan: CAMK2D / KINOMEscan: CAMK2G / KINOMEscan: ABL1(F317I)-nonphosphorylated / KINOMEscan: ABL1(F317I)-phosphorylated / KINOMEscan: ABL1(F317L)-nonphosphorylated: unit: % Ctrl

For experiment [1], the target named is T1, panel of 442 kinases (Homo sapiens, UniProt Q9P286).
T1 construct: purchased KINOMEscan
T1 sequence (Q9P286 whole entry): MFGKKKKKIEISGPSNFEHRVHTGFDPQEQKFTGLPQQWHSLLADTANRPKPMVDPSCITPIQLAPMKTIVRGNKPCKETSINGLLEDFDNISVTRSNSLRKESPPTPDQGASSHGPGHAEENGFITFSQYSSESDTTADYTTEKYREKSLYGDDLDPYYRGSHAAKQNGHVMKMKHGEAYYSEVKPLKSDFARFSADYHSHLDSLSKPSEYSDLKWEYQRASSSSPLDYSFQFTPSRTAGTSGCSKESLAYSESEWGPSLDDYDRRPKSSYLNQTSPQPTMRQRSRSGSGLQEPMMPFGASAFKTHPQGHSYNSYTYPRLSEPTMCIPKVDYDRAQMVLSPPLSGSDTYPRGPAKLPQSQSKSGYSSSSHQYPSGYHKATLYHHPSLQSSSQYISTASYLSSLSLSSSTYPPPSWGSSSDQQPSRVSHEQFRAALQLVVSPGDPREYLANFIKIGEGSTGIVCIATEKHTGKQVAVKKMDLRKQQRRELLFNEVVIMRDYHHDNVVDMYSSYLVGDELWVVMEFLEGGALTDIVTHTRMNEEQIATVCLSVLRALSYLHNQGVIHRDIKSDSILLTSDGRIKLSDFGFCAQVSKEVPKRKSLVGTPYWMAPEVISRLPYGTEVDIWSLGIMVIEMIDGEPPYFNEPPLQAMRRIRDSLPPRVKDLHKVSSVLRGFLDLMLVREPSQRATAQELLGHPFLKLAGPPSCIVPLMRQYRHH
As to conditions: Compound Concentration 10 µM. The text has this:
(§1) We assessed the selectivity of members of this scaffold using the KINOMEscan methodology across a near comprehensive panel of 442 kinases [[18,27]].

For experiment [2], the target named is T2, panel of 442 kinases (Homo sapiens, UniProt Q9H2G2).
T2 construct: purchased KINOMEscan
T2 sequence (Q9H2G2 whole entry): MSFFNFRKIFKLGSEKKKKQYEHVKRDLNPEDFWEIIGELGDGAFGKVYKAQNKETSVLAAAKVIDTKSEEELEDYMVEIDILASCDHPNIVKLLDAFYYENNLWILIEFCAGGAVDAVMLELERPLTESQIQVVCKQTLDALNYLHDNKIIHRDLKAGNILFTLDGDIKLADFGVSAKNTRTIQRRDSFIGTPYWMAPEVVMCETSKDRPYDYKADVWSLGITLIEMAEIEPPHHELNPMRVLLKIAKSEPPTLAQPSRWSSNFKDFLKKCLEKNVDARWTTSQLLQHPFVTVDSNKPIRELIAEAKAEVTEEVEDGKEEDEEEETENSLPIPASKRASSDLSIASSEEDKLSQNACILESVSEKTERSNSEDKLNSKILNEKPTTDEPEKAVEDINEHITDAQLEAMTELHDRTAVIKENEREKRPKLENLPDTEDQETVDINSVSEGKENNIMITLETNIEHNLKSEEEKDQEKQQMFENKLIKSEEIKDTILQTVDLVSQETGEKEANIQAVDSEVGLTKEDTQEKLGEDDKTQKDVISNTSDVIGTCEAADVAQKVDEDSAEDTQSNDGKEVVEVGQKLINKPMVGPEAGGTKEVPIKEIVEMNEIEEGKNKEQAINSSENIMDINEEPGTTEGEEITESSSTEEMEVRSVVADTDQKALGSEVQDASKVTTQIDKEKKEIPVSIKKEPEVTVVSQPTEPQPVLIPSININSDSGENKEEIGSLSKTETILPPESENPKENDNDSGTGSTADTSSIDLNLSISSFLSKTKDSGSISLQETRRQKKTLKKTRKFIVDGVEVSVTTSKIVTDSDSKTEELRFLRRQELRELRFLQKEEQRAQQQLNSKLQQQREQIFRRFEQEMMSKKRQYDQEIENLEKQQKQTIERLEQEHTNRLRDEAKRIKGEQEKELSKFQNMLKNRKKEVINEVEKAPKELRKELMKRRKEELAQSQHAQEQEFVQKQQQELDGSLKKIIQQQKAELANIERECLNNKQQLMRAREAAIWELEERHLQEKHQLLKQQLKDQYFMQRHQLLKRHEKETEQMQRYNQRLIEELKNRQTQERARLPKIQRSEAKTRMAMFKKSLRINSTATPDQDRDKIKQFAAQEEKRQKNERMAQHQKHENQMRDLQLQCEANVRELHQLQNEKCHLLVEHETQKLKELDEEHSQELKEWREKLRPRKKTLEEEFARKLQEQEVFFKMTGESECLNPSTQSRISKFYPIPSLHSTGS
The note with it: kinase SLK; compound concentration 10 µM.
From the text: as §1

Experiment [3] addresses T3, panel of 442 kinases (Homo sapiens, UniProt Q2M2I8).
T3 construct: purchased KINOMEscan
As to conditions: Compound Concentration 10 µM.
From the text: as §1

T3 sequence (Q2M2I8 whole entry): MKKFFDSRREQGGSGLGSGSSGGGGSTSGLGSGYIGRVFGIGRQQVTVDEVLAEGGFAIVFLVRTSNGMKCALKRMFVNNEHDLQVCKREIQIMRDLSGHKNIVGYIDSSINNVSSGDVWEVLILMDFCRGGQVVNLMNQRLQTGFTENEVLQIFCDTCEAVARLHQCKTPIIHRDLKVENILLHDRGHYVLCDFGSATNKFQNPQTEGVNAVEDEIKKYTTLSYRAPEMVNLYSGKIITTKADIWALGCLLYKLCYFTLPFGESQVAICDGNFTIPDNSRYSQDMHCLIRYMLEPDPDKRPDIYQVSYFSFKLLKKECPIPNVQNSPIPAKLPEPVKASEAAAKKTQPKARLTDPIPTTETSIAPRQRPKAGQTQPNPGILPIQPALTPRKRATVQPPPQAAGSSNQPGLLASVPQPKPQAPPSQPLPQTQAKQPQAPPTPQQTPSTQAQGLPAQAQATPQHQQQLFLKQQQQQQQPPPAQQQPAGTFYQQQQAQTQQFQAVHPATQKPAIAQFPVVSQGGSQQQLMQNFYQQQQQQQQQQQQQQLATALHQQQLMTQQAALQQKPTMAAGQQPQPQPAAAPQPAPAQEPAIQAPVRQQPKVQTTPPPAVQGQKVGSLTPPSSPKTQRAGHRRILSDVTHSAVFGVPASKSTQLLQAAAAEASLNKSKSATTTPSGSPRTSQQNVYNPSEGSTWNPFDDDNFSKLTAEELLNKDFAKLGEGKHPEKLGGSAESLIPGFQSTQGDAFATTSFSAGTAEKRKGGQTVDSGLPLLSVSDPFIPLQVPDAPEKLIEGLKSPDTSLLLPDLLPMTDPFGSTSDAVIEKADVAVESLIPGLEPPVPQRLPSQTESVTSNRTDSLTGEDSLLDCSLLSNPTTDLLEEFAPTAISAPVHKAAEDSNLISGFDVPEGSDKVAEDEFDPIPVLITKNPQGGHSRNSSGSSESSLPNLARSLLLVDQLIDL

With `CCOc1cc(C(=O)N2CCC(N3CCN(C)CC3)CC2)ccc1Nc1ncc2c(n1)N(C1CCCC1)c1ccccc1C(=O)N2C` [Compound 26], the “KINOMEscan: PAK7” value in experiment [1] turned out to be 100. For the same molecule, the “% Ctrl, SLK” value in experiment [2] is listed as 100 % Ctrl. Also, in experiment [3], the “KINOMEscan: AAK1” value is on record as 100.
As to `COc1cc(C(=O)N2CCC(N3CCN(C)CC3)CC2)ccc1Nc1ncc2c(n1)N1CCc3cccc(c31)C(=O)N2C` [Compound 24], the “% Ctrl, SLK” value in experiment [2] stood at 49 % Ctrl.
Consider `COc1cc(C(=O)N2CCC(N3CCN(C)CC3)CC2)ccc1Nc1ncc2c(n1)N(C)c1ccccc1C(=O)N2C` [15 (LRRK2-IN-1)], for which, in experiment [1], the “KINOMEscan: PAK7” value came out at 96. In experiment [2], the “% Ctrl, SLK” value is given as 100 % Ctrl. Also, the “KINOMEscan: AAK1” value in experiment [3] worked out at 84.
Take `COc1cc(C(=O)N2CCC(N3CCN(C)CC3)CC2)ccc1Nc1ncc2c(n1)N(C1CCCC1)c1ccccc1C(=O)N2C` [Compound 25, 11-cyclopentyl-2-((2-methoxy-4-(4-(4-methylpiperazin-1-yl)piperidine-1-carbonyl)phenyl)amino)-5-methyl-5H-benzo[e]pyrimido[5,4-b][1,4]diazepin-6(11H)-one]: in experiment [1], the “KINOMEscan: PAK7” value came to 100. For the same molecule, the “% Ctrl, SLK” value in experiment [2] is given as 100 % Ctrl. Further, the “KINOMEscan: AAK1” value in experiment [3] amounted to 89.
